Measured values taken from patent publication US20210108199A1, “Treatment for aggressive cancers by targeting C9ORF72” (The Trustees of Columbia University in the City of New York, priority 2017, published 2021).

Tests used:
Assay type in all cases: cell-based
U87 cells [1] = assay: Vacuole quantitation in phase contrast images after C9 KD; details: 3 days, vs siCtrl
Description: For siRNA knockdown experiments, siRNAs targeting C9 mRNA were designed with the Whitehead website (sirna.wi.mit.edu) and with RNAxs webserver (rna.tbi.univie.ac.at/cgi-bin/RNAxs). All siRNAs were obtained from GenePharma™. Lipofectamine RNAiMAX (Thermo Scientific™) was used as the transfection reagent for all siRNA experiments (according to the manufacturer's instructions). siRNA concentration was 40 nM per 60 mm plate. After 6 hours, media was changed and cells were treated again with siRNA after 48 hours. For RNA and protein analysis, cells were harvested after 48 hours following the second treatment. All KD experiments were performed in three biological replicates. The siRNA sequences were as follows: […] (SEQ ID NO:631; sense) and […] (SEQ ID NO:632; antisense); and GCACAUAUGGACUAUCAAUtt (SEQ ID NO:633; sense) and AUUGAUAGUCCAUAUGUGCtg (SEQ ID NO:634; antisense). The lower case letters in the sequence indicate location where optional modifications can be placed to enhance stability of the RNA.
The vacuoles were examined in order to reveal the mechanism by which C9 protein levels contribute to vacuole initiation. […] The number of vacuoles per cell were counted using imageJ™ from 3 biological replicates and a total of about 50 cells were quantitated, each dot representing a measurement of vacuoles per one cell FIG. 2A). […] Statistical significance was assessed by two tailed t-test. […]

U87 cells [2] = assay: β-Galactosidase staining (senescence)
Description: β-Galactosidase staining was performed using a Senescence™ β-Galactosidase Staining Kit (Cell Signaling™, #9860) and used according to manufacturer's instructions.
To confirm that cells undergo non-apoptotic death, apoptosis was blocked with a broad caspase inhibitor Z-VAD-FMK upon C9 KD. […] Additionally, the apoptosis inducer, staurosporine (STS), was used to asses Z-VAD-FMK efficacy. […] A beta galactosidase staining technique was used to asses senescence upon C9 KD. […] See FIG. 20, for which U87 cells were treated with control (siCtrl) and C9 (siC9; SEQ ID NO:631) siRNA and then subjected to β-Galactosidase Staining.

p53 null U87 cells [3] = assay: Mitochondrial imaging in p53 null U87 clones; details: p53 KO U87 clones KO #4 and KO #9
Excerpt: C9 then was knocked down in two p53 KO U87 cells lines which were imaged to show whether mitochondrial disorganization depends on p53. […] FIG. 38 is a set of confocal microscopy images of two p53 null U87 clones (KO #4 and KO #9) treated with control and C9 siRNA, stained with Mitotracker red.

p53 null U87 cells [4] = assay: qRT-PCR in p53 null U87 KO #4 cells
Description: For most RNA experiments, RNA was isolated from cells using the Qiagen™ RNeasy minikit. Complementary DNA was generated using the Qiagen™ Quantitect™ reverse transcription kit with 0.5 μg of input RNA as measured with a NanoDrop spectrophotometer (Thermo Scientific™). Real-time PCR was carried out on an ABI StepOne Plus™ machine using power SYBR Green dye (Thermo Scientific™). Transcript levels were assayed in triplicate and normalized to RPL32 and HPS90 mRNAs. Relative changes in cDNA levels were calculated using the comparative Ct method (ΔΔCT method). All RT-qPCR primers were designed with Primer3Plus™ or retrieved from Primerbank™. Primer sequences are listed here, including in Table 3. All primers were purchased from Life Technologies™. H. Generation of p53 Knock Out U87 Cell Lines by CRISPR
See FIG. 32, which presents RT-qPCR analysis of C9ORF72, CDKN1A (p21), PUMA, MDM2 and PARP1 mRNA levels in U87 KO #4 cells treated with control (siCtrl) and C9 (siC9; SEQ ID NO:631) siRNA. These experiments were performed in three biological replicates (n=3) and error bars represent S.E.M. Statistical significance was assessed by unpaired t-test: NS P>0.05, *P≤0.05, **P≤0.01, ***P≤0.001 ****P≤0.0001.

Substance: siC9: siRNA targeting C9 mRNA: UUAAUGAAACAAUAAUCACUC (SEQ ID NO:631; sense) and GUGAUUAUUGUUUCAUUAAUC (SEQ ID NO:632; antisense) (listed as RNA, chemistry not given here)
- size of vacuoles (U87 cells [1]): significant increase
- total vacuoles per cell (U87 cells [1]): significant increase
- nucleus and cell size (U87 cells [2]): increase in both nucleus and cell size
- β-galactosidase staining (senescence) (U87 cells [2]): did not stain with the assay
- mitochondrial organization (p53 null U87 cells [3]): caused mitochondrial disorganization
- PUMA and MDM2 mRNA (p53 null U87 cells [4]; p53 null U87 KO #4 cells): lower levels
- p21 mRNA (p53 null U87 cells [4]; p53 null U87 KO #4 cells): did not result in a significant change
- PARP1 mRNA (p53 null U87 cells [4]; p53 null U87 cells): repression was also observed
